Reference: patent US8519002B2, “Colchicine solid complex; methods of making; and methods of use thereof” (Takeda Pharmaceuticals U.S.A., Inc., priority 2008, dated 2013)

Tests used:
[1] = 40° C./75% RH; for XRPD of stressed sample (solid form after stress): 4 days, result in words
[2] = for hygroscopicity suggested by DVS data: 5% to 95% RH; for weight gain observed on the sorption step: DVS whole sorption step
Method: Samples ae not dried prior to analysis. Equilibrium criteria used for analysis were less than 0.0100% weight change in 5 minutes, with a maximum equilibration time of 3 hours if the weight criterion was not met. Data are not corrected for the initial moisture content of the samples. Sodium chloride and polyvinypyrrolidine are used as calibration standards.

[3] = DVS desorption, result in words

With COc1cc2c(c(OC)c1OC)-c1ccc(OC)c(=O)cc1[C@@H](NC(C)=O)CC2.Cc1ccc(S(=O)(=O)O)cc1 the “net weight gain after 4 days” value [1] was “approximately 1.0%”, the “XRPD of stressed sample (solid form after stress)” value (“XRPD of stressed sample” for short) [1] was “unchanged” and the “hygroscopicity suggested by DVS data” value ([2]; result in words) was “not significantly hygroscopic”. For the same compound, the “weight loss from 95 to 5% RH” value ([2]; DVS desorption) was 0.5% weight loss from 95 to 5% RH, the “weight gain from 5 to 95% RH” value ([2]; DVS sorption, 5 to 95% RH) was 0.4% weight gain from 5 to 95% RH and the “weight loss upon equilibration at 5% RH” value ([2]; DVS sorption, equilibration at 5% RH) was 0.01% weight loss upon equilibration at 5% RH. For the same compound, the “weight gain observed on the sorption step” value [2] was roughly 0.4% and the “net weight loss after sorption and desorption” value ([2]; DVS, desorption versus sorption) was roughly 0.01%.

For COc1cc2c(c(OC)c1OC)-c1ccc(OC)c(=O)cc1[C@@H](NC(C)=O)CC2.O=C(O)C[C@H](O)C(=O)O [colchicine malic acid co-crystal], the “net weight gain after 4 days” value [1] was “approximately 5.4%”, the “XRPD of stressed sample” value [1] was “remains unchanged” and the “hygroscopicity suggested by DVS data” value ([2]; result in words) was “hygroscopic”. The “weight loss from 75 to 5% RH” value ([2]; DVS desorption, 75 to 5% RH) was 9.6% weight loss from 75 to 5% RH, the “weight loss from 95 to 75% RH” value ([2]; DVS desorption, 95 to 75% RH) was 15.0% weight loss from 95 to 75% RH and the hysteresis upon desorption [2, 3] was “no hysteresis”. The “weight gain from 5 to 75% RH” value ([2]; DVS sorption) was 6.2% weight gain from 5 to 75% RH, the “weight gain from 75 to 95% RH” value ([2]; DVS sorption, 75 to 95% RH (above 75% RH)) was 15.6% weight gain from 75 to 95% RH and the “weight gain observed on the sorption step” value [2] was “approximately 22%”. The “Post DVS XRPD (solid form after DVS)” value ([2]; XRPD of sample after DVS) was “Colchicine malic acid co-crystal”.

For COc1cc2c(c(OC)c1OC)-c1ccc(OC)c(=O)cc1[C@@H](NC(C)=O)CC2.COc1cc2c(c(OC)c1OC)-c1ccc(OC)c(=O)cc1[C@@H](NC(C)=O)CC2.O=C(O)C(=O)O [colchicine oxalic acid co-crystal], the “net weight loss after 4 days” value [1] was “approximately 6.7%”, the “XRPD of stressed sample” value [1] was “colchicine oxalic acid co-crystal, but minor disorder and shifting of the peaks is observed” and the “hygroscopicity suggested by DVS data” value ([2]; result in words) was “hygroscopic”. For the same compound, the “weight loss from 95 to 5% RH” value ([2]; DVS desorption) was 15.2% weight loss from 95 to 5% RH, the hysteresis upon desorption [2, 3] was “Significant hysteresis” and the “weight gain from 5 to 75% RH” value ([2]; DVS sorption) was 0.5% weight gain from 5 to 75% RH. The “behaviour of material in DVS (deliquescence)” value ([2]; DVS, upon desorption, result in words) was “deliquesces”.
